Earlier results, collected in patent publication US20240173315A1 (OWP Pharmaceuticals, Inc., priority 2022, published 2024).
Where a name gives a salt, the structure may show the parent alone. Read-outs that look alike come from different tables or passages of the source.

Experiments:
[1] = humans, oral
[2] = oral dose
CYP3A4 = target: T1, CYP3A4 (Homo sapiens, UniProt P08684); details: in vitro
T1 construct: In vitro studies in human liver microsomes; from tissue; host or cells: human liver microsomes
T1 sequence (P08684 whole entry): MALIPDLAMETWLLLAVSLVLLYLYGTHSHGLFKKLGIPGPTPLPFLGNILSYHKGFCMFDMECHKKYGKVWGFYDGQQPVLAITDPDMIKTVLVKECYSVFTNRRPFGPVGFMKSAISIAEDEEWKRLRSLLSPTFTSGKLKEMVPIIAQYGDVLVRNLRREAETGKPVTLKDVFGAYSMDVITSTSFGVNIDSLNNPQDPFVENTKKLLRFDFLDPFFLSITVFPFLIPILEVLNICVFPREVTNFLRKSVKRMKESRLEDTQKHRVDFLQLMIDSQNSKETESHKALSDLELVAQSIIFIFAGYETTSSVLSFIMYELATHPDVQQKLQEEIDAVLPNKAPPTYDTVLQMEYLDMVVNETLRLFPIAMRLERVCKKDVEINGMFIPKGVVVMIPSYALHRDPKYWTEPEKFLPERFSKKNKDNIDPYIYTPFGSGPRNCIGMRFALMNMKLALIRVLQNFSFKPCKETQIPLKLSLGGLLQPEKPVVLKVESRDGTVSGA

Row | time after dosing at which peak plasma levels occur ([1]; taken on an empty stomach) | effect of food on amount of drug absorbed ([1]; taken shortly after ingestion of food) | time after dosing at which peak plasma levels occur ([1]; taken with food) [h] | excreted unchanged in the urine [2] | SMILES | metabolism in human liver microsomes (CYP3A4)
1 | approximately one | increase | ~2 | – | O=c1n(CCCN2CCN(c3cccc(Cl)c3)CC2)nc2ccccn12 [trazodone hydrochloride] | –
2 | – | – | – | less than 1 % of an oral dose | O=c1n(CCCN2CCN(c3cccc(Cl)c3)CC2)nc2ccccn12 [trazodone, 2-{3-[4-(3-chlorophenyl)piperazin-1-yl]propyl}[1,2,4]triazolo[4,3-a]pyridin-3(2H)-one] | metabolized, via oxidative cleavage, to an active metabolite, m-chlorophenvlpipera.zine (mCPP) by CYP3A4
